Legend:
human orexin 1 receptor = human orexin 1 receptor (Homo sapiens, UniProt O43613); assay: Human orexin 1 receptor radioligand binding; details: CHO cells stably expressing human orexin 1 receptor; apparent Ki; read-out: hOX1 Ki
Experimental: The in vitro affinity of the compounds of the invention for the rat/human orexin 1 and human orexin 2 receptors was determined by competitive radioligand binding using [^3H](1-(5-(2-fluoro-phenyl)-2-methyl-thiazol-4-yl)-1-((S)-2-(5-phenyl-(1,3,4)oxadiazol-2-ylmethyl)-pyrrolidin-1-yl)-methanone)(Langmead et al., 2004) and [^3H]EMPA (n-ethyl-2[96-methoxy-pyridin-3-yl)-(toluene-2-sulfonyl)-amino]-N-pyridin-3-ylmethyl acetamide), respectively (Langmead et al., 2004, British Journal of Pharmacology 141:340-346; Malherbe et al., 2004, British Journal of Pharmacology 156:1326-41).
Human Embryonic Kidney 293 cells (HEK293) stably expressing rat orexin 1 receptor (Genebank accession number NM_001525) or Chinese ovary cells (CHO) stably expressing human orexin 1 receptor (Genebank accession number NM_001526) were grown to confluency in DMEM (Hyclone, cat #SH30022), 10% FBS, 1× Pen/Strep, 1× sodium pyruvate, 10 mM HEPES, 600 µg/mL G418 and DMEM/F12 (Gibco, Cat #11039), 10% FBS, 1× Pen/Strep, 600 µg/mL G418 media, respectively on 150 cm^2 tissue culture plates, washed with 5 mM EDTA in PBS (HyClone Dulbecco's Phoshpate Buffered Saline 1× with Calcium and Magnesium, Cat #SH30264.01, hereafter referred to simply as PBS) and scraped into 50 ml tubes. After centrifugation (2K×G, 5 min at 4° C.), the supernatant was aspirated and the pellets frozen and stored at −80° C. Cells were resuspended in PBS in the presence of 1 tablet of protease inhibitor cocktail (Roche, Cat. #11836145001) per 50 mL. Each cell pellet from a 15 cm plate was resuspended in 10 mL, stored on ice, and homogenized for 45 sec prior to addition to the reactions. Competition binding experiments in 96 well polypropylene plates were performed using [^3H]-(1-(5-(2-fluoro-phenyl)-2-methyl-thiazol-4-yl)-1-((S)-2-(5-phenyl-(1,3,4)oxadiazol-2-ylmethyl)-pyrrolidin-1-yl)-methanone) (Moraveck Corporation, specific activity=35.3 Ci/mmol), diluted to a 10 nM concentration in PBS (4 nM final). […] The final concentration of DMSO in the reactions is equal to or less than 0.1%. Total and nonspecific binding was determined in the absence and presence of 10 μM almorexant. The total volume of each reaction is 200 μL (20 μL of diluted compounds, 80 μL of [3H]-(1-(5-(2-fluoro-phenyl)-2-methyl-thiazol-4-yl)-1-((S)-2-(5-phenyl-(1,3,4)oxadiazol-2-ylmethyl)-pyrrolidin-1-yl)-methanone) diluted in PBS and 100 μL of the cell suspension). Reactions were run for 60 min at room temperature and terminated by filtration through GF/C filter plates (PerkinElmer, Cat. #6005174) presoaked in 0.3% polyethylenimine using the cell harvester (PerkinElmer Filtermate). The plates were washed 3 times by aspirating 30 ml PBS through the plates. Plates were dried in 55° C. oven for 60 min, scintillation fluid was added, and the radioactivity was counted on a Topcount (Packard).

human orexin 2 receptor = human orexin 2 receptor (Homo sapiens (Human), UniProt O43614); assay: Human orexin 2 receptor radioligand binding ([3H]-EMPA); details: HEK293 stably expressing human orexin 2 receptor; [3H]-EMPA; apparent Ki; read-out: hOX2 Ki
human orexin 2 receptor, sequence (O43614 whole entry): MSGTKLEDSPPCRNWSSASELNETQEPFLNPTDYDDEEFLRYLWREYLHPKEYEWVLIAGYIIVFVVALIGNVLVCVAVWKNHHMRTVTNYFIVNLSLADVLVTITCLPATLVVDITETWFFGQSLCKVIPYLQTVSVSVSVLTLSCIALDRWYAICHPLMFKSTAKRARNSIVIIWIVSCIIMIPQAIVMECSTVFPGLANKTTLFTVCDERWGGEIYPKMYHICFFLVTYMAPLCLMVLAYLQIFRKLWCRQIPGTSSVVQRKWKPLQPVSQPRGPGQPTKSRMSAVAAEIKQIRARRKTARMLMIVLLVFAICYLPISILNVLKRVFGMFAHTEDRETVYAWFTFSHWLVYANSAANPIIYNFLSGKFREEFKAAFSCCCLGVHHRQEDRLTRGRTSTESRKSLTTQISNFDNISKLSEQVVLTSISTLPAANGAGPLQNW
Experimental: After centrifugation (2K×G, 5 min at 4° C.), the supernatant was aspirated and the pellets frozen and stored at −80° C. […] Each cell pellet from a 15 cm plate was resuspended in 10 mL, stored on ice, and homogenized for 45 sec just prior to addition to the reactions. Competition binding experiments in 96 well polypropylene plates were performed using [^3H]-EMPA (Moraveck Corporation, specific activity=29.6 Ci/mmol), diluted to a 5 nM concentration in PBS (2 nM final concentration). […] The final concentration of DMSO in the reactions is equal to or less than 0.1%. Total and nonspecific binding was determined in the absence and presence of […]. The total volume of each reaction is 200 μL (20 μL of diluted compounds, 80 μL of [^3H]-EMPA diluted in PBS and 100 μL of the cell suspension).
The plates were washed 3 times by aspirating 30 ml PBS through the plates. Plates were dried in 55° C. oven for 60 min, scintillation fluid was added, and the radioactivity was counted on a Topcount (Packard).

rat orexin 1 receptor = rat orexin 1 receptor (Rattus norvegicus, UniProt P56718); assay: Rat orexin 1 receptor radioligand binding; details: HEK293 cells stably expressing rat orexin 1 receptor; apparent Ki; read-out: rOX1 Ki
Experimental: After centrifugation (2K×G, 5 min at 4° C.), the supernatant was aspirated and the pellets frozen and stored at −80° C. […] Each cell pellet from a 15 cm plate was resuspended in 10 mL, stored on ice, and homogenized for 45 sec prior to addition to the reactions. Competition binding experiments in 96 well polypropylene plates were performed using [^3H]-(1-(5-(2-fluoro-phenyl)-2-methyl-thiazol-4-yl)-1-((S)-2-(5-phenyl-(1,3,4)oxadiazol-2-ylmethyl)-pyrrolidin-1-yl)-methanone) (Moraveck Corporation, specific activity=35.3 Ci/mmol), diluted to a 10 nM concentration in PBS (4 nM final). […] The final concentration of DMSO in the reactions is equal to or less than 0.1%. Total and nonspecific binding was determined in the absence and presence of 10 μM almorexant. The total volume of each reaction is 200 μL (20 μL of diluted compounds, 80 μL of [3H]-(1-(5-(2-fluoro-phenyl)-2-methyl-thiazol-4-yl)-1-((S)-2-(5-phenyl-(1,3,4)oxadiazol-2-ylmethyl)-pyrrolidin-1-yl)-methanone) diluted in PBS and 100 μL of the cell suspension). […] The plates were washed 3 times by aspirating 30 ml PBS through the plates. Plates were dried in 55° C. oven for 60 min, scintillation fluid was added, and the radioactivity was counted on a Topcount (Packard).

| Structure (SMILES) | Ki (human orexin 1 receptor) | Ki (human orexin 2 receptor) | Ki (rat orexin 1 receptor) |
| --- | --- | --- | --- |
| Cc1cc(C)nc(N[C@@H]2CCCN(C(=O)c3ccc(F)cc3-n3nccn3)[C@H]2C)n1 (racemic) [Example 1, (±)-trans-(3-((4,6-dimethylpyrimidin-2-yl)amino)-2-methylpiperidin-1-yl)(4-fluoro-2-(2H-1,2,3-triazol-2-yl)phenyl)methanone] | 1030 nM | 290 nM |  |
| Cc1cc(C)nc(N[C@@H]2CCCN(C(=O)c3c(F)cccc3-c3ncccn3)[C@H]2C)n1 (racemic) [Example 2, (±)-trans-(3-((4,6-dimethylpyrimidin-2-yl)amino)-2-methylpiperidin-1-yl)(2-fluoro-6-(pyrimidin-2-yl)phenyl)methanone] | 400 nM | 217 nM |  |
| Cc1cc(C)nc(N[C@@H]2CCCN(C(=O)c3c(F)cccc3-n3nccn3)[C@H]2C)n1 (racemic) [Example 3, (±)-trans-(3-((4,6-dimethylpyrimidin-2-yl)amino)-2-methylpiperidin-1-yl)(2-fluoro-6-(2H-1,2,3-triazol-2-yl)phenyl)methanone] | 1060 nM | 260 nM |  |
| Cc1cc(C)nc(N[C@@H]2CCCN(C(=O)c3ccccc3-n3nccn3)[C@H]2C)n1 (racemic) [Example 4, (±)-trans-(2-(2H-1,2,3-triazol-2-yl)phenyl)(3-((4,6-dimethylpyrimidin-2-yl)amino)-2-methylpiperidin-1-yl)methanone] | 78 nM | 40 nM |  |
| Cc1cc(C)nc(N[C@@H]2CCCN(C(=O)c3cc(F)ccc3-n3nccn3)[C@H]2C)n1 (racemic) [Example 5, (±)-trans-(3-((4,6-dimethylpyrimidin-2-yl)amino)-2-methylpiperidin-1-yl)(5-fluoro-2-(2H-1,2,3-triazol-2-yl)phenyl)methanone] | 560 nM | 116 nM |  |
| Cc1ccc(-n2nccn2)c(C(=O)N2CCC[C@@H](Nc3cc(C)nc(C(F)(F)F)n3)[C@@H]2C)c1 (racemic) [Example 8, (±)-trans-(5-methyl-2-(2H-1,2,3-triazol-2-yl)phenyl)(2-methyl-3-((6-methyl-2-(trifluoromethyl)pyrimidin-4-yl)amino)piperidin-1-yl)methanone] | 462 nM | 587 nM |  |
| Cc1cc(N[C@@H]2CCCN(C(=O)c3cc(F)ccc3-c3ncccn3)[C@H]2C)nc(C(F)(F)F)n1 (racemic) [Example 9, (±)-trans-(5-fluoro-2-(pyrimidin-2-yl)phenyl)(2-methyl-3-((6-methyl-2-(trifluoromethyl)pyrimidin-4-yl)amino)piperidin-1-yl)methanone] | 6710 nM | 2050 nM |  |
| C[C@H]1[C@H](Nc2nccc(C(F)(F)F)n2)CCCN1C(=O)c1c(F)cccc1-n1nccn1 (racemic) [Example 10, (±)-trans-(2-fluoro-6-(2H-1,2,3-triazol-2-yl)phenyl)(2-methyl-3-((4-(trifluoromethyl)pyrimidin-2-yl)amino)piperidin-1-yl)methanone] | 315 nM | 144 nM |  |
| Cc1ccc(C(=O)N2CCC[C@@H](Nc3nccc(C(F)(F)F)n3)[C@@H]2C)c(-n2ccnn2)n1 (racemic) [Example 11, (±)-trans-(6-methyl-2-(1H-1,2,3-triazol-1-yl)pyridin-3-yl)(2-methyl-3-((4-(trifluoromethyl)pyrimidin-2-yl)amino)piperidin-1-yl)methanone] | 9000 nM |  |  |
| C[C@H]1[C@H](Nc2ncc(C(F)(F)F)cn2)CCCN1C(=O)c1ccccc1-n1nccn1 (racemic) [Example 35, (±)-trans-(2-(2H-1,2,3-triazol-2-yl)phenyl)(2-methyl-3-((5-(trifluoromethyl)pyrimidin-2-yl)amino)piperidin-1-yl)methanone] | 29 nM |  |  |
| COc1c(F)cccc1C(=O)N1CCC[C@@H](Nc2ccc(C(F)(F)F)cn2)[C@H]1C (racemic) [Example 54, (±)-cis-(3-fluoro-2-methoxyphenyl)(2-methyl-3-((5-(trifluoromethyl)pyridin-2-yl)amino)piperidin-1-yl)methanone] |  | > 10000 nM | 4500 nM |
| CCOc1ccccc1C(=O)N1CCC[C@@H](Nc2ccc(C(F)(F)F)cn2)[C@H]1C (racemic) [Example 55, (±)-cis-(2-ethoxyphenyl)(2-methyl-3-((5-(trifluoromethyl)pyridin-2-yl)amino)piperidin-1-yl)methanone] |  | > 10000 nM | 1200 nM |
| CCOc1ccccc1C(=O)N1CCC[C@@H](Nc2ccc(Br)cn2)[C@H]1C (racemic) [Example 59, (±)-cis-(3-(5-bromopyridin-2-yl)amino)-2-methylpiperidin-1-yl)(2-ethoxyphenyl)methanone] |  | > 10000 nM | 1800 nM |
| C[C@@H]1[C@H](Nc2nc3cc(Cl)ccc3o2)CCCN1C(=O)c1ccccc1-n1nccn1 (racemic) [Example 60, (±)-cis-((2-(2H-1,2,3-triazol-2-yl)phenyl)(3-((5-chlorobenzo[d]oxazol-2-yl)amino)-2-methylpiperidin-1-yl)methanone] |  | > 10000 nM | > 10000 nM |
| COc1c(F)cccc1C(=O)N1CCC[C@@H](Nc2nc3cc(Cl)ccc3o2)[C@H]1C (racemic) [Example 62, (±)-cis-(3-((5-chlorobenzo[d]oxazol-2-yl)amino)-2-methylpiperidin-1-yl)(3-fluoro-2-methoxyphenyl)methanone] |  | 5700 nM | 1800 nM |
| COc1c(F)cccc1C(=O)N1CCC[C@@H](Nc2cnc3ccccc3n2)[C@H]1C (racemic) [Example 64, (±)-cis-(3-fluoro-2-methoxyphenyl)(2-methyl-3-(quinoxalin-2-ylamino)piperidin-1-yl)methanone] |  | 1300 nM | 1100 nM |
| Cc1ccc(C(=O)N2CCC[C@H](Nc3ccc(C(F)(F)F)cn3)[C@H]2C)c(-n2nccn2)c1 [Example 15, (4-methyl-2-(2H-1,2,3-triazol-2-yl)phenyl)((2R,3S)-2-methyl-3-((5-(trifluoromethyl)pyridin-2-yl)amino)piperidin-1-yl)methanone] |  | > 10000 nM | 8200 nM |
| C[C@H]1[C@H](Nc2ccc(F)cn2)CCCN1C(=O)c1ccccc1-n1nccn1 [Example 34, (2-(2H-1,2,3-triazol-2-yl)phenyl)((2S,3R)-3-((5-fluoropyridin-2-yl)amino)-2-methylpiperidin-1-yl)methanone] |  | 700 nM | 355 nM |

Source: patent publication US9115117B2, “Substituted piperidine compounds and their use as orexin receptor modulators” (JANSSEN PHARMACEUTICA NV, priority 2013, dated 2015)
